Results from patent US12503426B2, “Synthetic derivatives of oleoyl-lysophosphatidylinositol (oleoyl-LPI) and uses thereof” (LIPOVEXA SRL, priority 2017, dated 2025).

Tests used:
NCI-H716 cells = assay: GLP-1 secretion in NCI-H716 cells, in vitro human L cells model (Examples 30-33); format: cell-based
Protocol: (§1) To evaluate the GLP-1 biosynthesis and secreting capabilities of the compounds of formula I in vitro using the human-derived cell line NCI-H716, 50,000 such cells were seeded per well of a 24-well plate pre-coated with a thin layer of Matrigel (0.15 mg/ml) in RPMI complete (RPMI additioned with FBS 10%, Glucose 2 g/L, Glutamine 4 mM, Sodium Bicarbonate 2 g/L, Pen/Strep 1× pH 7.4 at 37° C.) and incubated at 37° C. in humidified 5% CO2 atmosphere to induce endocrine differentiation.
After 48 hours, media was withdrawn and cells washed once with warm HBSS (Hank's balanced salt solution) and then incubated in duplicate for 2 hours with the different dilutions of the oleoyl-LPI, OEA, DMSO (as negative control), a test compound of formula I, and KR-62436 10 μg/ml, all dissolved in RPMI serum free (RPMI complete without FBS) at 37° C. in humidified 5% CO2 incubator. Supernatant were quickly collected on ice and stored at −80° C. before quantification of GLP-1 with a commercial ELISA (EMD Millipore) specific for active-GLP-1 species.
as §1, with “1×pH” for “1× pH”
After 48 hours, media was withdrawn and cells washed twice with pre-warm HBSS (Hank's balanced salt solution) and then incubated in duplicate for 2 hours with 250 μl of 20 μM of either oleoyl-LPI, DMSO (as negative control) or a test compound of formula I, and […], all dissolved in RPMI serum free (RPMI complete without FBS) at 37° C. in humidified 5% CO2 incubator. Compounds of formula I tested were ps297b, ps316a, ps318a, ps319a, ps321a and ps323.
Supernatant were quickly collected on ice and stored at −80° C. before quantification of GLP-1 with a commercial ELISA (EMD Millipore) specific for active-GLP-1 species (e.g., GLP-1 (7-36) amide) and […]).
Compounds of formula I were tested for GLP-1 secretion in NCI-H716 cells essentially as describe in examples 30 and 31 above. EC50 GLP-1 secretion readout results were standardized relative to maximum GLP-1 secretion obtained with oleoyl-LPI. EC50 readout results were rated as low GLP-1 secretion activity (0-20% of maximum GLP-1 secretion achieved with oleoyl-LPI), moderate (21-79% of maximum GLP-1 secretion achieved with oleoyl-LPI), and high GLP-1 activity (80% and more of maximum GLP-1 secretion achieved with oleoyl-LPI). Table 3 also outlines the R1, R2 and R3 substituents of the compounds of formula I.

wild type mice = assay: Oral Glucose GLP-1 secretion test; format: in vivo; settings: oral gavage 20 mg/kg, samples 2 minutes post glucose load, N=3
Protocol: Active GLP-1 levels were measured in samples collected 2 minutes post glucose load. N=3
In a slight variation on the above method GLP-1 measurement in mice can be carried out by Peripheral GLP-1 stimulation and measurement in C57bl/6J mice. After 6 hours of fasting, the mice are weighed, and drug volumes are calculated. […] At 2 minutes post-glucose gavage, a blood sample is collected from the submandibular vein into an EDTA coated prechilled tube containing a panel of protease inhibitors. The plasma is separated by spinning at 1,500 g for 20 minutes at 4 C. the plasma is then collected and snap frozen on dry ice and store at −20 C before proceeding with hormone quantification. For hormone quantification the samples are thawed and total GLP-1 levels are quantified, GLP1(7-36)amide+GLP-1(9-36)amide, in 20 μL of plasma with the commercial ELISA kit from Millipore EZGLP1T-36K. This method is also described in Windelov J A et al Diabetologia. […]
Mice were sampled at about 2 minutes post glucose load, 20 μl of arterial blood may be sampled in K3-EDTA and KR-62436 containing tubes to collect plasma and samples are quickly store at −80° C. Plasma samples of 4 to 6 animals may be pool together and assayed to quantify the levels of active GLP-1 (such as GLP-1 (7-36)amide) using commercially available ELISA kits. […] Active GLP-1 levels were measured in samples collected 2 minutes post glucose load. […]

[1] = tested on: colonic cells of the GI tract obtained from guinea pig; assay: Ex vivo GLP-1 biosynthesis and secretion, guinea pig GI tract cells; format: cell-based
Protocol: To test for this, a pregnant guinea pig was anesthetized with isoflurane and sacrificed via intra-cardial injection of pentobarbital. Colon and rectum were quickly collected and intraluminal content washed out with ice-cold HBSS. After a thorough cleansing from the faecal material, and gentle scraping of the internal mucosa, the tissue was minced into 3 to 5-millimetre pieces and resuspended into 50 ml of ice cold HBSS. Pellet was spun down and washed again in 50 ml of ice-cold HBSS. Supernatant was carefully removed, and the epithelial fragments were then resuspended for 30 minutes at 37° C. into a 5 ml solution of HEPES 25 mM, collagenase-P 1 mg/ml in HBSS, pH 7.4 at 37° C.
The tissue was then pelleted and resuspended further for about 30 to 40 additional minutes at 37° C. within a 10 ml solution of 1 mg/ml collagenase-P as above.
After the digestion, about 40 ml of pre-warmed DMEM complete media was added (FBS 10%, glucose 4.5 g/L, glutamine 4 mM, sodium pyruvate 1 mM, HEPES 25 mM, sodium bicarbonate 3.7 g/L, Pen/Strep 1× and Ciprofloxacin 10 μg/ml pH 7.4 at 37° C.). Crypts and individual cells were isolated with a […] nylon strainer, spun down at 200 g for 5 minutes, resuspended into 10 ml of DMEM complete media and plated into 20 wells of a 24-well plate coated with a 3D gel of 3 mg/ml Matrigel (BD, Biosciences, Oxford, UK). After one day of incubation at 37° C. 5% CO2 in a humidified incubator, cells were washed with 500 μl of warm HBSS, and treated with 250 μl DMEM serum free (Complete medium without FBS) additioned with KR-62436 10 μg/ml and individually the following drugs or compounds: Forskolin and IBMX (20 μM each), oleoyl-LPI, and the two oleoyl-LPI analogs and/or derivatives ps297b (prepared as described in example 13) and ps316a (prepared as described in example 22) were all tested in quadruplicate at 20 μM.
After a 2-hour long incubation at 37 C 5% CO2, the supernatants were collected on ice, and quickly stored at […]. Active GLP-1 levels (7-37 amide and 7-36) were quantified on 50 μl of supernatant with an ELISA commercial kit (EMD Millipore). DMSO was used as a negative control, the combination of Forskolin and IBMX was included as positive control activators GLP-1. GLP-1 levels measured were standardized against the DMSO control.
The EC50 levels each one of oleoyl-LPI, compound ps297b and compound ps316a were also measured in quadruplicates at the conclusion of the 2 hour incubation. Guinea pig cells obtained as described above were also incubated with […] in quadruplicates and subjected to 2-hour long incubation at 37 C 5% CO2 as described above and EC50 levels measured.

Danio rerio larvae = assay: Zebrafish toxicity test; format: in vivo; settings: two-days old larvae treated for 3 days; heartbeat, movement, teratogenicity; preliminary experiment
Text: About two-days old Danio rerio larvae may be dechorionated and treated for about 3 days with increasing amount of any synthetic compound of formula I or salt or solvate thereof of this invention. The cardiotoxicity effect of the compound or salt or solvate may be assessed by measuring the heartbeat, the movement, and teratogenicity (hatching rate, mortality rate (LD50). The experiment may be repeated for three times or more times e.g., with about 10 larvae per concentration tested.
Two-days old Danio rerio larvae were dechorionated and treated for 3 days with increasing amount of a synthetic compound of formula I such as ps297b.

**Q.** Which results are given for `CCCCCCCC/C=C\CCCCCCCC(=O)Nc1ccc(-c2nnn[nH]2)cc1` [ps297b]?
**A.** GLP-1 biosynthesis and secretion from NCI-H716 L cells (NCI-H716 cells; 20 μM, 2 hours, normalized against DMSO vehicle control): able to mediate GLP-1 biosynthesis and secretion; level of GLP-1 biosynthesis and secretion compared with oleoyl-LPI (NCI-H716 cells; NCI-H716 cells, 20 μM, 2 hours): comparable to that of oleoyl-LPI; GLP-1 secretion Activity relative to oleoyl-LPI (NCI-H716 cells; NCI-H716 cells, standardized relative to maximum GLP-1 secretion obtained with oleoyl-LPI): High (high GLP-1 activity (80% and more of maximum GLP-1 secretion achieved with oleoyl-LPI)); activity in inducing and/or increasing secretion of GLP-1 from cells of the GI tract (NCI-H716 cells; summary statement, compared with oleoyl-LPI): equal to or higher than oleoyl-LPI; GLP-1 release (active GLP-1 levels) (wild type mice): increasing GLP-1 release; GLP-1 biosynthesis and secretion ex vivo ([1]; 20 μM, 2 hours, standardized against DMSO control): stimulated biosynthesis and secretion; stability after incubation ex vivo ([1]; 2 hours incubation ex vivo): remained stable after 2 hours incubation ex vivo; EC50 ([1]; Cavia porcellus, ex vivo incubation 2 hours, quadruplicates): 30 µM; concentration with no sign of toxicity (Danio rerio larvae): up to 200 micromolar
